This passage reports IC50 and melting point results from patent US7462617B2, “Substituted acylpiperazine derivatives” (Hoffmann-La Roche Inc., priority 2003, dated 2008).

In general, IC50 refers to the concentration that gives 50% inhibition. What is called melting point is the temperature of the solid-liquid transition.

The target in one data set is T1, mGlyT-1b (Mus musculus, UniProt P28571).
T1 construct: host or cells: Flp-in-CHO
T1 sequence (P28571 1-651 isoform P28571-2): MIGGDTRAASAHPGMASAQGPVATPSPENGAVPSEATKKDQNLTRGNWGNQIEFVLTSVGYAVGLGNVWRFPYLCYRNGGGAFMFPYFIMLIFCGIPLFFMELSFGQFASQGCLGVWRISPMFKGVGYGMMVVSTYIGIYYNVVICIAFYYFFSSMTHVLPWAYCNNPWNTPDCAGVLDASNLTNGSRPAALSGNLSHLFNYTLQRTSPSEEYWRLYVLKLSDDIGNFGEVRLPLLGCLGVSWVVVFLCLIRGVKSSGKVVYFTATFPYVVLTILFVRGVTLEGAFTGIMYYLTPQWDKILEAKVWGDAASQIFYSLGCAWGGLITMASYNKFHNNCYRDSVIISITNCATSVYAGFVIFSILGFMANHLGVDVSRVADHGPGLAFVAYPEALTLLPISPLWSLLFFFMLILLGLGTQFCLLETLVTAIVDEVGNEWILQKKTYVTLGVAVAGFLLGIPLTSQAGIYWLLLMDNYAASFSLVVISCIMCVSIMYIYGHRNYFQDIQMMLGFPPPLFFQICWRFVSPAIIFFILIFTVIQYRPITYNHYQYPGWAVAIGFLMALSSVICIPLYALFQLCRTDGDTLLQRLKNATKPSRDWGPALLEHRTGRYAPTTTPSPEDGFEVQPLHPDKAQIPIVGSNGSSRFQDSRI
Briefly: Glycine Uptake Inhibition Assay (mGlyT-1b). Conditions: [3H]-glycine uptake in Flp-in-CHO cells stably transfected with mGlyT1b cDNA; 20 min preincubation at 22° C.; read-out: IC50 (μM) at GlyT-1. The format is cell-based. The protocol: DMEM complete medium: Nutrient mixture F-12 (Gibco Life-technologies), fetal bovine serum (FBS) 5%, (Gibco life technologies), Penicillin/Streptomycin 1% (Gibco life technologies), Hygromycin 0.6 mg/ml (Gibco life technologies), Glutamine 1 mM Gibco life technologies)
Uptake buffer (UB): 150 mM NaCl, 10 mM Hepes-Tris, pH 7.4, 1 mM CaCl2, 2.5 mM KCl, 2.5 mM MgSO4, 10 mM (+) D-glucose. Flp-in™-CHO (Invitrogen Cat n^o R758-07)cells stably transfected with mGlyT1b cDNA.
Glycine Uptake Inhibition Assay (mGlyT-1b)
On day 1 mammalian cells, (Flp-in™-CHO), transfected with mGlyT-1b cDNA, were plated at the density of 40,000 cells/well in complete F-12 medium, without hygromycin in 96-well culture plates. On day 2 ,the medium was aspirated, and the cells were washed twice with uptake buffer (UB). The cells were then incubated for 20 min at 22° C. with either (i) no potential competitor, (ii) 10 mM non-radioactive glycine, (iii) a concentration of a potential inhibitor. A range of concentrations of the potential inhibitor was used to generate data for calculating the concentration of inhibitor resulting in 50% of the effect (e.g. IC50, the concentration of the competitor inhibiting glycine uptake of 50%). A solution was then immediately added containing [^3H]-glycine 60 nM (11-16 Ci/mmol) and 25 μM non-radioactive glycine. The plates were incubated with gentle shaking, and the reaction was stopped by aspiration of the mixture and washing (three times) with ice-cold UB. The cells were lysed with scintillation liquid, shaken 3 hours, and the radioactivity in the cells was counted using a scintillation counter.

For the molecule `CS(=O)(=O)c1ccc(-c2ccccc2)c(C(=O)N2CCN(c3ncc(C(F)(F)F)cc3Cl)CC2)c1` [Example 114, [4-(3-Chloro-5-trifluoromethyl-pyridin-2-yl)-piperazin-1-yl]-(4-methanesulfonyl-biphenyl-2-yl)-methanone], on mGlyT-1b, the half-maximal inhibitory concentration (IC50) amounted to 0.035 µM. With `CC(=O)c1ccc(N2CCN(C(=O)c3cc([N+](=O)[O-])ccc3C3CC3)CC2)c(F)c1` [Example 16, 1-{4-[4-(2-Cyclopropyl-5-nitro-benzoyl)-piperazin-1-yl]-3-fluoro-phenyl}-ethanone], on mGlyT-1b, the IC50 worked out at 0.026 µM. Take `CS(=O)(=O)c1ccc(C2=CCCCCC2)c(C(=O)N2CCN(c3ccc(C(F)(F)F)cc3)CC2)c1` [Example 75, (2-Cyclohept-1-enyl-5-methanesulfonyl-phenyl)-[4-(4-trifluoromethyl-phenyl)-piperazin-1-yl]-methanone]: the IC50 on mGlyT-1b is 0.014 µM. As for `CC(=O)c1ccc(N2CCN(C(=O)c3cc(S(C)(=O)=O)ccc3C3=CCCCCC3)CC2)c(F)c1` [Example 73, 1-{4-[4-(2-Cyclohept-1-enyl-5-methanesulfonyl-benzoyl)-piperazin-1-yl]-3-fluoro-phenyl}-ethanone], on mGlyT-1b, the IC50 was determined as 0.013 µM. As for `CS(=O)(=O)c1ccc(-c2ccsc2)c(C(=O)N2CCN(c3ccc(C(F)(F)F)cc3)CC2)c1` [Example 53, (5-Methanesulfonyl-2-thiophen-3-yl-phenyl)-[4-(4-trifluoromethyl-phenyl)-piperazin-1-yl]-methanone], the IC50 at mGlyT-1b came out at 0.006 µM. In the case of `CS(=O)(=O)c1ccc(-c2ccc(F)cc2)c(C(=O)N2CCN(c3ccc(C(F)(F)F)cc3F)CC2)c1` [Example 63, (4′-Fluoro-4-methanesulfonyl-biphenyl-2-yl)-[4-(2-fluoro-4-trifluoromethyl-phenyl)-piperazin-1-yl]-methanone], the IC50 on mGlyT-1b came to 0.01 µM. Consider `CS(=O)(=O)c1ccc(-c2ccccc2)c(C(=O)N2CCN(c3ccc(C(F)(F)F)cc3F)CC2)c1` [Example 62, [4-(2-Fluoro-4-trifluoromethyl-phenyl)-piperazin-1-yl]-(4-methanesulfonyl-biphenyl-2-yl)-methanone], for which the half-maximal inhibitory concentration (IC50) at mGlyT-1b came out at 0.019 µM.

On to `CC(=O)c1ccc(N2CCN(C(=O)c3cc(S(C)(=O)=O)ccc3-c3ccsc3)CC2)cc1` [Example 127, 1-{4-[4-(5-Methanesulfonyl-2-thiophen-3-yl-benzoyl)-piperazin-1-yl]-phenyl}-ethanone], for which, on mGlyT-1b, the concentration for half-maximal inhibition (IC50) worked out at 0.036 µM.

Turning to `CS(=O)(=O)c1ccc(C2CCCC2)c(C(=O)N2CCN(c3ccc(C(F)(F)F)cc3)CC2)c1` [Example 79, (2-Cyclopentyl-5-methanesulfonyl-phenyl)-[4-(4-trifluoromethyl-phenyl)-piperazin-1-yl]-methanone], on mGlyT-1b, the IC50 is 0.008 µM. `CNS(=O)(=O)c1ccc(-c2ccccc2)c(C(=O)N2CCN(c3ccc(C(F)(F)F)cc3)CC2)c1` [Example 76, 2-[4-(4-Trifluoromethyl-phenyl)-piperazine-1-carbonyl]-biphenyl-4-sulfonic acid methylamide]: on mGlyT-1b, the IC50 came out at 0.012 µM. Consider `CS(=O)(=O)c1ccc(C2=CCOCC2)c(C(=O)N2CCN(c3ccc(C(F)(F)F)cc3F)CC2)c1` [Example 91, [2-(3,6-Dihydro-2H-pyran-4-yl)-5-methanesulfonyl-phenyl]-[4-(2-fluoro-4-trifluoromethyl-phenyl)-piperazin-1-yl]-methanone], for which, on mGlyT-1b, the IC50 turned out to be 0.022 µM. For `CS(=O)(=O)c1ccc(-c2cccs2)c(C(=O)N2CCN(c3ccc(C(F)(F)F)cc3)CC2)c1` [Example 52, (5-Methanesulfonyl-2-thiophen-2-yl-phenyl)-[4-(4-trifluoromethyl-phenyl)-piperazin-1-yl]-methanone], the IC50 at mGlyT-1b turned out to be 0.033 µM. On to `CS(=O)(=O)c1ccc(-c2ccccc2F)c(C(=O)N2CCN(c3ncc(C(F)(F)F)cc3Cl)CC2)c1` [Example 111, [4-(3-Chloro-5-trifluoromethyl-pyridin-2-yl)-piperazin-1-yl]-(2′-fluoro-4-methanesulfonyl-biphenyl-2-yl)-methanone], for which the IC50 at mGlyT-1b came to 0.038 µM.

`CS(=O)(=O)c1ccc(-c2ccncc2)c(C(=O)N2CCN(c3ccc(C(F)(F)F)cc3)CC2)c1` [Example 59, (5-Methanesulfonyl-2-pyridin-4-yl-phenyl)-[4-(4-trifluoromethyl-phenyl)-piperazin-1-yl]-methanone]: the IC50 on mGlyT-1b was determined as 0.033 µM. For the molecule `CS(=O)(=O)c1ccc(-c2ccccc2F)c(C(=O)N2CCN(c3ccc(C#N)cc3F)CC2)c1` [Example 126, 3-Fluoro-4-[4-(2′-fluoro-4-methane-sulfonyl-biphenyl-2-carbonyl)-piperazin-1-yl]-benzonitrile], the IC50 at mGlyT-1b came to 0.039 µM. Regarding `CC(=O)c1ccc(N2CCN(C(=O)c3c(Cl)ccc([N+](=O)[O-])c3Cl)CC2)c(F)c1` [Example 12, 1-{4-[4-(2,6-Dichloro-3-nitro-benzoyl)-piperazin-1-yl]-3-fluoro-phenyl}-ethanone], the melting point fell in the range of 209 to 211 °C. In the case of `CC(=O)c1ccc(N2CCN(C(=O)c3cc(S(C)(=O)=O)ccc3C3=CCOCC3)CC2)c(F)c1` [Example 72, 1-(4-{4-[2-(3,6-Dihydro-2H-pyran-4-yl)-5-methanesulfonyl-benzoyl]-piperazin-1-yl}-3-fluoro-phenyl)-ethanone], on mGlyT-1b, the IC50 was 0.021 µM. As to `Cc1ccc(-c2ccc(S(C)(=O)=O)cc2C(=O)N2CCN(c3ccc(C(F)(F)F)cc3)CC2)s1` [Example 55, [5-Methanesulfonyl-2-(5-methyl-thiophen-2-yl)-phenyl]-[4-(4-trifluoromethyl-phenyl)-piperazin-1-yl]-methanone], on mGlyT-1b, the IC50 was found to be 0.039 µM.

With `CCc1ccc(N2CCN(C(=O)c3cc(S(C)(=O)=O)ccc3C3CCCCC3)CC2)c(F)c1` [Example 69, (2-Cyclohexyl-5-methanesulfonyl-phenyl)-[4-(4-ethyl-2-fluoro-phenyl)-piperazin-1-yl]-methanone], at mGlyT-1b, the IC50 worked out at 0.031 µM. Still for that read-out and setting: as for `CS(=O)(=O)c1ccc(C2=CCCCC2)c(C(=O)N2CCN(c3ccc(C(F)(F)F)cc3)CC2)c1` [Example 77, (2-Cyclohex-1-enyl-5-methanesulfonyl-phenyl)-[4-(4-trifluoromethyl-phenyl)-piperazin-1-yl]-methanone], the figure is 0.011 µM. On to `COC(=O)c1ccc([N+](=O)[O-])cc1C(=O)N1CCN(c2ccc(C(C)=O)cc2F)CC1` [Example 43, 2-[4-(4-Acetyl-2-fluoro-phenyl)-piperazine-1-carbonyl]-4-nitro-benzoic acid methyl ester], for which the melting point was 189 to 191 °C. Moreover, at mGlyT-1b, the IC50 was found to be 0.032 µM.

With `CC(=O)c1ccc(N2CCN(C(=O)c3cc(S(C)(=O)=O)ccc3C3=CCCC3)CC2)c(F)c1` [Example 71, 1-{4-[4-(2-Cyclopent-1-enyl-5-methanesulfonyl-benzoyl)-piperazin-1-yl]-3-fluoro-phenyl}-ethanone], the IC50 at mGlyT-1b worked out at 0.013 µM. Still for that read-out and setting: as for `CC(=O)c1ccc(N2CCN(C(=O)c3cc([N+](=O)[O-])ccc3-c3ccccc3)CC2)c(F)c1` [Example 15, 1-{3-Fluoro-4-[4-(4-nitro-biphenyl-2-carbonyl)-piperazin-1-yl]-phenyl}-ethanone], the figure is 0.023 µM; as for `CC(=O)c1ccc(N2CCN(C(=O)c3cc(S(C)(=O)=O)ccc3C3=CCCCC3)CC2)c(F)c1` [Example 68, 1-{4-[4-(2-Cyclohex-1-enyl-5-methanesulfonyl-benzoyl)-piperazin-1-yl]-3-fluoro-phenyl}-ethanone], 0.007 µM.

Regarding `CS(=O)(=O)c1ccc(C2=CCOCC2)c(C(=O)N2CCN(c3ccc(C(F)(F)F)cc3)CC2)c1` [Example 60, [2-(3,6-Dihydro-2H-pyran-4-yl)-5-methanesulfonyl-phenyl]-[4-(4-trifluoromethyl-phenyl)-piperazin-1-yl]-methanone], the IC50 on mGlyT-1b was determined as 0.019 µM.
